In patent US20250051338A1, “TYK2 DEGRADERS AND USES THEREOF” (Kymera Therapeutics, Inc., priority 2021, published 2025):

Legend:
Type in all cases: cell-based
TYK2 [1] = target: T1, TYK2 (Homo sapiens, UniProt P29597); experiment: TYK2 degradation MSD assay in human PBMC cells; set-up: endogenous in cells; host or cells: human PBMC; conditions: 4 to 24 hours incubation, read-out: TYK2 MSD DC50 rating in human PBMC
In short: (§1)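 Compound-driven TYK2 loss is measured with a Meso Scale Discovery sandwich assay on whole-cell lysates. Cells are incubated 4 to 24 hours at 37° C with nine 1:3-diluted doses topping at 1 to 10 μM, and DC50 values derive from four-parameter curve fitting.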

TYK2 [2] = target: T1, TYK2; experiment: TYK2 degradation MSD assay in EBV-B cells; set-up: endogenous in cells; host or cells: EBV-B cells; conditions: 4 to 24 hours incubation, read-out: TYK2 MSD DC50 rating in EBV-B
In short: as §1

TYK2 [3] = target: T1, TYK2; experiment: TYK2 degradation MSD assay in OCI-LY10 cells; set-up: endogenous in cells; host or cells: EBV-B cells; conditions: 4 to 24 hours incubation, read-out: TYK2 MSD DC50 rating in OCI-LY10
In short: as §1

T1 sequence (P29597 whole entry): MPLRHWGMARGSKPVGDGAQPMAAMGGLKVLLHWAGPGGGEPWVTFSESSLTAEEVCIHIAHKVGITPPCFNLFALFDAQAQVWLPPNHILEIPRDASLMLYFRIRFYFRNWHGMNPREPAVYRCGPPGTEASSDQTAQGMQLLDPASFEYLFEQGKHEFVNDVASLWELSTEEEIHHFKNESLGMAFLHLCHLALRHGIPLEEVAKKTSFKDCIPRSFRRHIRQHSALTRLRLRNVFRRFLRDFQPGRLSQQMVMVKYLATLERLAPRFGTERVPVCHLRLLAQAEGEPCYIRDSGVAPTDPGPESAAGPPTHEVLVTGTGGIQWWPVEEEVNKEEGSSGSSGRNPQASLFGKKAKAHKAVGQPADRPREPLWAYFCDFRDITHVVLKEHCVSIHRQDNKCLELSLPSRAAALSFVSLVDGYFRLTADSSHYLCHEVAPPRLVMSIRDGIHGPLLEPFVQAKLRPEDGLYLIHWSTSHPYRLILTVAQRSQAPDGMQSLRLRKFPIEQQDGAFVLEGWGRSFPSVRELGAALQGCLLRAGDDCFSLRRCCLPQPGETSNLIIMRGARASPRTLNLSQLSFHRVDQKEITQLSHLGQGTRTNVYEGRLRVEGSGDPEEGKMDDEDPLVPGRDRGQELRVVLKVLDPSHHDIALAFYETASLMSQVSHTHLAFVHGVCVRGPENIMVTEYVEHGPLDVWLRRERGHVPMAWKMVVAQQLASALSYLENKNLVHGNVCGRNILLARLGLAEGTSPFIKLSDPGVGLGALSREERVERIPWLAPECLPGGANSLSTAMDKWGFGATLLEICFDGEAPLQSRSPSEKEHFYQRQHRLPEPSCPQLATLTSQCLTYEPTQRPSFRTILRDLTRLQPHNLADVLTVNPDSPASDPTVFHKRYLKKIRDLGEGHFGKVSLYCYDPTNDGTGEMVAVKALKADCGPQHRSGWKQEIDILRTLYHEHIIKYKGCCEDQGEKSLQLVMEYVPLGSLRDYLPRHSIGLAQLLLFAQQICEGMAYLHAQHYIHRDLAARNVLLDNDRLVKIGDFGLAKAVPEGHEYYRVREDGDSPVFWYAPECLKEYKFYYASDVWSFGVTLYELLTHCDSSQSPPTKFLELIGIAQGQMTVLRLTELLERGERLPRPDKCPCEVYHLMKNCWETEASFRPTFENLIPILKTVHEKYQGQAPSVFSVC

Structure (SMILES)	DC50 (TYK2 [1]) [nM]	DC50 (TYK2 [2]) [nM]	DC50 (TYK2 [3]) [nM]
CNc1cc(-c2cn(C)c3c(C4CCN(CC5CCN(c6ccc(-c7ccc8c(c7)n(C)c(=O)n8C7CCC(=O)NC7=O)cc6)CC5)CC4)cccc23)nn2c(C(=O)N[C@@H]3C[C@@H]3F)cnc12 (mixture of isomers) [Example K540]	> 100	> 100	1 to 10
CNc1cc(Nc2cccc(C(=O)NCCCCCCc3cccc4c3n(C)c(=O)n4C3CCC(=O)NC3=O)c2)nn2c(C(=O)N[C@@H]3C[C@@H]3F)cnc12 (stereo partly drawn) [Example K250]	< 1	> 100	> 100
CNc1cc(Nc2cccc(-c3ccc(CN4CCC(C#Cc5cccc6c5n(C)c(=O)n6C5CCC(=O)NC5=O)CC4)cn3)c2)nn2c(C(=O)N[C@@H]3C[C@@H]3F)cnc12 (stereo partly drawn) [Example K431]	> 100	> 100	1 to 10
COc1c(Nc2cc(Nc3ccc(C(=O)NCCCCc4cccc5c4n(C)c(=O)n5C4CCC(=O)NC4=O)cn3)ncc2C(=O)NC2CC2)cccc1-c1ncc(F)cn1 (stereo not drawn) [Example K180]	1 to 10	10 to 100	> 100
CNc1cc(N2CCc3c(-c4ccc(C(=O)N5CCC(CN6CCN(c7ccc(-c8ccc9c(c8)n(C)c(=O)n9C8CCC(=O)NC8=O)cc7)CC6)CC5)cn4)cccc32)nn2c(C(=O)N[C@@H]3C[C@@H]3F)cnc12 (stereo partly drawn) [Example K627]	> 100	> 100	< 1
CNc1cc(Nc2cccc(CN3CC4(C3)CN(c3ncc(C#Cc5ccc6c(c5)n(C)c(=O)n6C5CCC(=O)NC5=O)cn3)C4)c2)nn2c(C(=O)NC3CC3)cnc12 (stereo not drawn) [Example K604]	> 100	> 100	< 1
CNc1cc(Nc2cccc(-c3ccc(CN4CCN(CCCOc5ccc(C6CCC(=O)NC6=O)cc5)CC4)cn3)c2)nn2c(C(=O)N[C@@H]3C[C@@H]3F)cnc12 (stereo partly drawn) [Example K504]	> 100	< 1	> 100
CNc1cc(N2CCc3c(-c4ccc(CN5CC6(CCN(C(=O)c7ccc(Cl)c(N8CCC(=O)NC8=O)c7)CC6)C5)cn4)cccc32)nn2c(C(=O)N[C@@H]3C[C@@H]3F)cnc12 [Example K498]	> 100	< 1	< 1
CNC(=O)c1cnc(Nc2ccc(CN3CC(c4cccc5c4n(C)c(=O)n5C4CCC(=O)NC4=O)C3)cn2)cc1Nc1cccc(-c2ncc(F)cn2)c1OC (stereo not drawn) [Example K198]	< 1	> 100	> 100
CNc1cc(N2CCc3c(-c4cc(N5CCN(c6cccc7c6n(C)c(=O)n7C6CCC(=O)NC6=O)CC5)ccn4)cccc32)nn2c(C(=O)N[C@@H]3C[C@@H]3F)cnc12 (stereo partly drawn) [Example K653]	> 100	> 100	> 100
CNC(=O)c1cnc(Nc2ccc(CN(C)CCCOC3CC(c4ccc5c(c4)n(C)c(=O)n5C4CCC(=O)NC4=O)C3)cn2)cc1Nc1cccc(-c2ncc(F)cn2)c1OC (stereo not drawn) [Example K148]	< 1	< 1	> 100
CNc1cc(Nc2cccc(CN3CC(N4CCN(c5ccc6c(c5)n(C)c(=O)n6C5CCC(=O)NC5=O)CC4)C3)c2)nn2c(C(=O)NC3CC3)cnc12 (stereo not drawn) [Example K603]	> 100	> 100	1 to 10
CNc1cc(-c2cccc(C(=O)NCCCCCCCCc3ccc4c(c3)n(C)c(=O)n4C3CCC(=O)NC3=O)c2)nn2c(C(=O)NC3C[C@@H]3F)cnc12 (stereo partly drawn) [Example K309]	> 100	> 100	> 100
CNC(=O)c1cnc(Nc2ccc(CN(C)CC3CCN(c4ccc5c(c4)n(C)c(=O)n5C4CCC(=O)NC4=O)CC3)cn2)cc1Nc1cccc(-c2ncc(F)cn2)c1OC (stereo not drawn) [Example K135]	< 1	< 1	> 100
CNc1cc(-c2cccc(C(=O)NCCCCc3cccc4c3n(C)c(=O)n4C3CCC(=O)NC3=O)c2)nn2c(C(=O)N[C@@H]3C[C@@H]3F)cnc12 (stereo partly drawn) [Example K305]	> 100	> 100	> 100
CNC(=O)c1cnc(Nc2ccc(CN3CCC(c4cccc5c4n(C)c(=O)n5C4CCC(=O)NC4=O)CC3)cn2)cc1Nc1cccc(-c2ncc(F)cn2)c1OC (stereo not drawn) [Example K167]	> 100	< 1	> 100
CNc1cc(N2CCc3c(N4CCC(CN5CCN(c6ccc(-c7ccc8c(c7)n(C)c(=O)n8C7CCC(=O)NC7=O)cc6)CC5)CC4)cccc32)nn2c(C(=O)N[C@@H]3C[C@@H]3F)cnc12 (stereo partly drawn) [Example K551]	> 100	1 to 10	> 100
CNc1cc(Nc2cccc(CN3CC(C)(Cc4ccc5c(c4)n(C)c(=O)n5C4CCC(=O)NC4=O)C3)c2)nn2c(C(=O)NC3CC3)cnc12 (stereo not drawn) [Example K607]	> 100	> 100	> 100
CNc1cc(C2CCN(C(=O)CCCCCCCc3ccc4c(c3)n(C)c(=O)n4C3CCC(=O)NC3=O)CC2)nn2c(C(=O)N[C@@H]3C[C@@H]3F)cnc12 (stereo partly drawn) [Example K302]	> 100	> 100	> 100
CNC(=O)c1cnc(Nc2ccc(N3CCN(c4ccc5c(c4)n(C)c(=O)n5C4CCC(=O)NC4=O)CC3)cn2)cc1Nc1cccc(-c2ncc(F)cn2)c1OC (stereo not drawn) [Example K196]	< 1	> 100	< 1
CNC(=O)c1cnc(NC(=O)NCCCCCCc2cccc3c2n(C)c(=O)n3C2CCC(=O)NC2=O)cc1Nc1cccc(-c2ncc(F)cn2)c1OC (stereo not drawn) [Example K106]	> 100	> 100	> 100

Continued, values first:

DC50 (TYK2 [1]) [nM]	DC50 (TYK2 [2]) [nM]	DC50 (TYK2 [3]) [nM]	Structure (SMILES)
< 1	> 100	> 100	CNc1cc(Nc2ccccc2C(=O)NCCCCCCc2ccc3c(c2)n(C)c(=O)n3C2CCC(=O)NC2=O)nn2c(C(=O)N[C@@H]3C[C@@H]3F)cnc12 (stereo partly drawn) [Example K255]
> 100	> 100	> 100	Cn1c(=O)n(C2CCC(=O)NC2=O)c2cccc(CCOCCOCCNc3cc(Nc4cccn(-c5ccccn5)c4=O)nn4c(C(=O)N[C@@H]5C[C@@H]5F)cnc34)c21 (stereo partly drawn) [Example K212]
> 100	> 100	> 100	CNc1cc(Nc2cccn(-c3ccc(C(=O)C4CCC(C5CCN(c6ccc7c(c6)n(C)c(=O)n7C6CCC(=O)NC6=O)C5)CN4)cn3)c2=O)nn2c(C(=O)N[C@@H]3C[C@@H]3F)cnc12 (stereo partly drawn) [Example K424]
< 1	> 100	> 100	CNc1cc(Nc2cccn(-c3ccc(C(=O)N4CCN(CCc5ccc6c(c5)n(C)c(=O)n6C5CCC(=O)NC5=O)CC4)cn3)c2=O)nn2c(C(=O)N[C@@H]3C[C@@H]3F)cnc12 (stereo partly drawn) [Example K386]
> 100	> 100	> 100	CNc1cc(Nc2cccc(CN3CCN(c4ccc(-c5ccc6c(c5)n(C)c(=O)n6C5CCC(=O)NC5=O)cc4)CC3)c2OC)nn2c(C(=O)N[C@@H]3C[C@@H]3F)cnc12 (stereo partly drawn) [Example K576]
> 100	> 100	> 100	CNc1cc(Nc2cccn(-c3ccc(C(=O)NCCCCc4ccc5c(c4)n(C)c(=O)n5C4CCC(=O)NC4=O)cn3)c2=O)nn2c(C(=O)NC3CCC3)cnc12 (stereo not drawn) [Example K321]
> 100	> 100	> 100	Cc1cc(C)cc(Nc2cc(NCCCCCCCCc3ccc4c(c3)n(C)c(=O)n4C3CCC(=O)NC3=O)c3ncc(C(=O)N[C@@H]4C[C@@H]4F)n3n2)c1 (stereo partly drawn) [Example K400]
> 100	> 100	> 100	Cn1c(=O)n(C2CCC(=O)NC2=O)c2ccc(-c3ccc(N4CCN(Cc5ccc(-c6cccc(Nc7ccc8ncc(C(=O)NC9CC9)n8n7)c6)nc5)CC4=O)nc3)cc21 (stereo not drawn) [Example K459]
> 100	> 100	> 100	Cn1c(=O)n(C2CCC(=O)NC2=O)c2cccc(CCCCCCCCNc3cc(Nc4cccn(-c5ccccn5)c4=O)nn4c(C(=O)N[C@@H]5C[C@@H]5F)cnc34)c21 (stereo partly drawn) [Example K209]
> 100	1 to 10	< 1	CNc1cc(Nc2cccn(-c3ccc(C(=O)N4CC(N5CCN(CCc6ccc7c(c6)n(C)c(=O)n7C6CCC(=O)NC6=O)CC5)C4)cn3)c2=O)nn2c(C(=O)N[C@@H]3C[C@@H]3F)cnc12 (stereo partly drawn) [Example K429]
> 100	> 100	> 100	Cn1c(=O)n(C2CCC(=O)NC2=O)c2ccc(-c3ccc(CCCNc4cc(Nc5cccn(-c6ccccn6)c5=O)nn5c(C(=O)N[C@@H]6C[C@@H]6F)cnc45)nc3)cc21 (stereo partly drawn) [Example K365]
> 100	> 100	> 100	Cn1c(=O)n(C2CCC(=O)NC2=O)c2ccc(CCCCCCNc3cc(Nc4cccn(-c5ccccn5)c4=O)nn4c(C(=O)N[C@@H]5C[C@@H]5F)cnc34)cc21 (stereo partly drawn) [Example K207]
< 1	> 100	> 100	CNc1cc(Nc2ccccc2C(=O)NCCCCCCCCc2cccc3c2n(C)c(=O)n3C2CCC(=O)NC2=O)nn2c(C(=O)N[C@@H]3C[C@@H]3F)cnc12 (stereo partly drawn) [Example K258]
> 100	> 100	< 1	CNc1cc(Nc2cccc(-c3ccc(CN4CCN(c5cccc6c5n(C)c(=O)n6C5CCC(=O)NC5=O)CC4)cn3)c2)nn2c(C(=O)N[C@@H]3C[C@@H]3F)cnc12 (stereo partly drawn) [Example K460]
> 100	> 100	> 100	CNc1cc(Nc2cccn(C3CCN(C(=O)COCCOCCc4ccc5c(c4)n(C)c(=O)n5C4CCC(=O)NC4=O)CC3)c2=O)nn2c(C(=O)N[C@@H]3C[C@@H]3F)cnc12 (stereo partly drawn) [Example K275]
> 100	> 100	> 100	CNc1cc(Nc2cccc(CN(C)Cc3ccc(-c4ccc5c(c4)n(C)c(=O)n5C4CCC(=O)NC4=O)cn3)c2)nn2c(C(=O)NC3CC3)cnc12 (stereo not drawn) [Example K605]
